{
  "source": "ChEMBL document CHEMBL1201862",
  "about": "“PubChem BioAssay data set” (2004)",
  "key": {"[1]": {"test": "inhibition of bursicon-driven LGR2 cAMP signaling – cell-based, HEK293, CRE-luciferase reporter, cherry pick, dose response (AID 743342)", "assay_type": "functional"}, "[2]": {"test": "MITF Orthogonal Assay: SK-MEL-5 CTG Assay Measured in Cell-Based System Using Plate Reader - 2084-02_Inhibitor_Dose_DryPowder_Activity_Set7.", "assay_type": "functional"}, "[3]": {"test": "MITF: Counter assay: A375 proliferation Measured in Cell-Based System Using Plate Reader - 2084-03_Inhibitor_Dose_DryPowder_Activity_Set8.", "assay_type": "functional", "conditions": "A-375"}, "HEK293": {"tested_on": "HEK293", "test": "viability loss in HEK293T cells – cell-based, ATP luminescence, cherry-pick samples, cytotoxicity control, dose response (AID 687005);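 further: cells exposed to compound for 48 hours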", "assay_type": "functional", "conditions": "Homo sapiens"}, "[4]": {"test": "HEK293 Cytotoxicity Assay Measured in Cell-Based System Using Plate Reader - 7071-01_Inhibitor_Dose_CherryPick_Activity_Set2.", "assay_type": "functional"}, "[5]": {"test": "reduction of Shn3 3'UTR-driven luciferase in osteoblasts – cell-based, Clone20 osteoblasts, firefly luciferase, cherry-picked, dose response (AID 624132)", "assay_type": "functional"}, "[6]": {"test": "non-specific 3'UTR reporter inhibition in Clone20-Shn3RL – cell-based, Renilla luciferase, cherry-picked, counter-screen for Shn3 inhibitor project, dose response (AID 624133)", "assay_type": "functional"}, "[7]": {"test": "Shn3 3'UTR reporter signal decrease – cell-based, Clone20 osteoblasts, firefly luciferase, cherry-pick, set 2, Schnurri-3 inhibitor project, dose response (AID 720490);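 further: actives lower the luminescence signal as inhibitors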", "assay_type": "functional"}, "[8]": {"test": "EF1alpha-driven Renilla reporter with control 3'UTR suppression – Clone20-Shn3RL cells, dual-Glo, cherry-pick, set 2, counter-screen for Shn3 3'UTR targeting project, dose response (AID 720724)", "assay_type": "functional, cell-based", "conditions": "Dual-Go Shn3RL"}, "[9]": {"target": "Metabotropic glutamate receptor 5 (Rattus norvegicus, UniProt P31424)", "sequence (P31424 whole entry)": "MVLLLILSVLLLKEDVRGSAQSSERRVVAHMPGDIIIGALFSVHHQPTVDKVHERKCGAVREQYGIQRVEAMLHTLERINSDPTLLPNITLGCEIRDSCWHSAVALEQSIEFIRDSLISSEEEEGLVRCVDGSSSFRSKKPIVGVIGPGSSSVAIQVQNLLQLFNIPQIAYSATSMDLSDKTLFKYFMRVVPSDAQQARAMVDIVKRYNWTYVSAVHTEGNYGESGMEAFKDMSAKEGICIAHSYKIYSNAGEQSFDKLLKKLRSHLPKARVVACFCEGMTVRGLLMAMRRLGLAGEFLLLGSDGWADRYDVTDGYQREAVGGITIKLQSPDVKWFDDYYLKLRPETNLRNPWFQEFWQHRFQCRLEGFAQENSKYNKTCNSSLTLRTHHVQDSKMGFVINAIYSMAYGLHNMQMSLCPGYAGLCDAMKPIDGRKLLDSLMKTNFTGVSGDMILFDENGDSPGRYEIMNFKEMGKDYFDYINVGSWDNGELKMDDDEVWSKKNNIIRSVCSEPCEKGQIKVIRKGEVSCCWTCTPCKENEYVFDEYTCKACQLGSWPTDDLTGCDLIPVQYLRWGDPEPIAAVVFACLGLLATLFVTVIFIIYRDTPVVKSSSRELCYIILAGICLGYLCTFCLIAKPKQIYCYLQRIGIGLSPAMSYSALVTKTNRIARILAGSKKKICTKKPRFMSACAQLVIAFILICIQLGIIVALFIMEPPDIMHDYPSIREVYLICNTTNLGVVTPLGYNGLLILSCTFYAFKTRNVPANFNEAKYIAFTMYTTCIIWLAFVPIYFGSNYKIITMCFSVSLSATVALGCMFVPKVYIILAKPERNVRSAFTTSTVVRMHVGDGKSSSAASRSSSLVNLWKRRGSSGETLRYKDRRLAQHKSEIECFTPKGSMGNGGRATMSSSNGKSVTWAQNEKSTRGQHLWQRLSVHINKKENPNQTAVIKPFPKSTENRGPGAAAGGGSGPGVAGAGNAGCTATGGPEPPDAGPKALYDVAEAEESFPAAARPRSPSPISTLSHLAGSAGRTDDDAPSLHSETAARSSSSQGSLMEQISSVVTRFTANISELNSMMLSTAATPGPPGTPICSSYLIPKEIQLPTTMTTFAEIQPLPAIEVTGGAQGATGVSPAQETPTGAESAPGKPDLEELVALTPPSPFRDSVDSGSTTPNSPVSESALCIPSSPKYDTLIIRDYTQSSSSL", "test": "Identification of a glycine sulfonamide based non-MPEP site positive allosteric potentiator (PAM) of mGlu5 (calcium_assay).", "assay_type": "functional"}, "[10]": {"target": "ATP-dependent translocase ABCB1 (Homo sapiens, UniProt P08183)", "sequence (P08183 whole entry)": "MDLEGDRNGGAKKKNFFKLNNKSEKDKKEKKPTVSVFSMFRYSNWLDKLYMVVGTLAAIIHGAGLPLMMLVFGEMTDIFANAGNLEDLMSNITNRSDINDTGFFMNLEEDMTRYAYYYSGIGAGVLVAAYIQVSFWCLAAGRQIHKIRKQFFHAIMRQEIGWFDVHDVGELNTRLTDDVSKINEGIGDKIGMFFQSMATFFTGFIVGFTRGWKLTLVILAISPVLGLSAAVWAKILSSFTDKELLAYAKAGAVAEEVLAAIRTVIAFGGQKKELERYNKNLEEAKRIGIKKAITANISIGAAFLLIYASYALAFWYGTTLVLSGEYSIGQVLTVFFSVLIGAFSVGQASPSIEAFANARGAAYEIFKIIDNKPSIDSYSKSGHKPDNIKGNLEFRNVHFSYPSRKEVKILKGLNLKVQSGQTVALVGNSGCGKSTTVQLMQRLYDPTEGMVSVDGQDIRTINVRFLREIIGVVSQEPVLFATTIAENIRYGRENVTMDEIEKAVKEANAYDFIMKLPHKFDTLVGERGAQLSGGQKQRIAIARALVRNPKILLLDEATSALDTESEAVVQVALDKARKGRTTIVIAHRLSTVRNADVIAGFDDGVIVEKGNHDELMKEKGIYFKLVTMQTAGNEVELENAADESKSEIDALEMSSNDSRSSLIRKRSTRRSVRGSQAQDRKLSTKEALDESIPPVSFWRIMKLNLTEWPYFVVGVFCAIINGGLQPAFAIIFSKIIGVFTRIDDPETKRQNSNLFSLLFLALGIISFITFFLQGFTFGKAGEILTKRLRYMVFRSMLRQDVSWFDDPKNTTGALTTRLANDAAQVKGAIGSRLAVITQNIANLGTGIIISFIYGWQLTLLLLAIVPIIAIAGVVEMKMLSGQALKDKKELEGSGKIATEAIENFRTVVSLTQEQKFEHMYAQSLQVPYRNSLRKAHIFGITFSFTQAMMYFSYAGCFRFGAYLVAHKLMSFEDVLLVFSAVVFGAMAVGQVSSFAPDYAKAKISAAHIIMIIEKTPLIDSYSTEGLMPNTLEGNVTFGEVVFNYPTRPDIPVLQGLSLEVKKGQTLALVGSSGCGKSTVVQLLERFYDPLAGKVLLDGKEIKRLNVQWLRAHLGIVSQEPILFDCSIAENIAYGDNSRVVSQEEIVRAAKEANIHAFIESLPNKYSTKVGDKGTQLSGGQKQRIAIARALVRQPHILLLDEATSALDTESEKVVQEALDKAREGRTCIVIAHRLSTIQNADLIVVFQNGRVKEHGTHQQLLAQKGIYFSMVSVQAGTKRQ", "test": "P-gp JC-1 efflux blockers potency – Jurkat-DNR cells, flow cytometry, follow-up, dose response (AID 489002)", "assay_type": "functional"}, "Paired box protein Pax-8": {"target": "Paired box protein Pax-8 (Homo sapiens, UniProt Q06710)", "sequence (Q06710 whole entry)": "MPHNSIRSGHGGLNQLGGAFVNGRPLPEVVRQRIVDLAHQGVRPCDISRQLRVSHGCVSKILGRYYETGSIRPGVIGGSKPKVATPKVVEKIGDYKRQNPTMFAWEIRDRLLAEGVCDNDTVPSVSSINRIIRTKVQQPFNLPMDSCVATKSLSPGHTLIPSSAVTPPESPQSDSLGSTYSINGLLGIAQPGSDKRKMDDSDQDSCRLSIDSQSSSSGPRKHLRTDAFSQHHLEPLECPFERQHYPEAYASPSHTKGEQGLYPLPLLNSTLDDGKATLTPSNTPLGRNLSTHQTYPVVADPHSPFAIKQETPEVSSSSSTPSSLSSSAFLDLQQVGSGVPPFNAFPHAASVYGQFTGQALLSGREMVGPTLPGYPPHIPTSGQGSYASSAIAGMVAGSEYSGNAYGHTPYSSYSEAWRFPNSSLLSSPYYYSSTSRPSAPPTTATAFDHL", "test": "PAX8 transcriptional activity inhibition in RMG-I – RMG-I cells, luciferase, cherry-pick, dose response (AID 687027);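 further: luciferase reporter driven by Pax8 target thyroperoxidase promoter measured by SteadyGlo luminescence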", "assay_type": "functional, cell-based"}, "[11]": {"test": "inhibitors acting on PAX2 in cells – cell-based, plate reader, dry powder samples, selectivity assay for PAX8 inhibitor project, dose response (AID 743048);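 further: HEK293 cells carrying a WT1 promoter luciferase reporter driven by expressed Pax2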", "assay_type": "functional"}, "[12]": {"test": "COV362 cell viability loss – plate reader, dry powder, SA12, cytotoxicity control for PAX8 inhibitor project, dose response (AID 743144)", "assay_type": "functional, cell-based"}, "[13]": {"test": "OVCAR-3 cell viability loss – plate reader, dry powder samples, PAX8 inhibitor project, dose response (AID 743044)", "assay_type": "functional, cell-based"}, "[14]": {"test": "PAX5 cellular inhibition readout – cell-based, plate reader, dry powder samples, selectivity assay for PAX8 inhibitor project, dose response (AID 743047);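 further: HEK293 cells carrying a Pax5 driven CD19 promoter luciferase reporter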", "assay_type": "functional"}, "[15]": {"test": "IGROV1 cell killing – plate reader, dry powder samples, PAX8 inhibitor project, dose response (AID 743043)", "assay_type": "functional, cell-based", "conditions": "IGROV-1"}, "[16]": {"test": "COV434 cell viability loss – plate reader, dry powder, SA7, cytotoxicity control for PAX8 inhibitor project, dose response (AID 743145)", "assay_type": "functional, cell-based"}, "[17]": {"test": "OV-90 cell viability loss – plate reader, dry powder, SA8, PAX8 inhibitor project, dose response (AID 743149)", "assay_type": "functional, cell-based"}, "[18]": {"test": "PAX8-dependent cell viability loss – plate reader, dry powder, dose response (AID 743049)", "assay_type": "functional, cell-based"}, "[19]": {"test": "general mammalian cell viability loss – inhibitor set, cherry-pick, set 2, cytotoxicity control for miR-122 modulator project, dose response (AID 720697)", "assay_type": "functional, cell-based"}},
  "note": "Calls of active or inactive are those of the source. For most assays here, no stated cut-off is given here; in the data, actives have a measured AC50 and inactives only a lower limit.",
  "data": [
    {"smiles": "C[C@H](CO)N1C[C@H](C)[C@H](CN(C)C(=O)Nc2ccccc2)OCCCC[C@H](C)Oc2ccc(NC(=O)NC3CCCCC3)cc2C1=O", "values": [
      {"measurement": "AC50", "setting": "[1]", "result": "12 µM (active)"}
    ]},
    {"smiles": "CC1=C(N)C(=O)c2ccccc2C1=O", "values": [
      {"measurement": "AC50", "setting": "[2]", "result": "3.74 µM (active)"},
      {"measurement": "AC50", "setting": "[3]", "result": "> 70 µM (inactive)"}
    ]},
    {"smiles": "Cc1cccc(C)c1NC(=O)C1CCCN1C(=O)OC(C)(C)C", "note": "(stereo unspecified)", "values": [
      {"measurement": "AC50", "setting": "HEK293", "result": "50.8 µM (active)"},
      {"measurement": "AC50", "setting": "[4]", "result": "50.8 µM (active)"}
    ]},
    {"smiles": "CCC(C)c1ccc(S(=O)(=O)N2CCN(C(=O)c3ccc(Cl)c(S(=O)(=O)N4CCOCC4)c3)CC2)cc1", "note": "(stereo unspecified)", "values": [
      {"measurement": "AC50", "setting": "[5]", "result": "5.32 µM (active)"},
      {"measurement": "AC50", "setting": "[6]", "result": "> 70 µM (inactive)"},
      {"measurement": "AC50", "setting": "[7]", "result": "6.16 µM (active)"},
      {"measurement": "AC50", "setting": "[8]", "result": "61.3 µM (active)"}
    ]},
    {"smiles": "CC(C(=O)Nc1cc(F)cc(C#N)c1)N(c1ccccc1Cl)S(C)(=O)=O", "note": "(stereo unspecified)", "values": [
      {"measurement": "EC50", "setting": "[9]", "result": 5.45, "unit": "µM"}
    ]},
    {"smiles": "Cc1ccc(-c2cc3nc(-c4ccco4)cc(N4CCN(Cc5ccoc5)CC4)n3n2)cc1", "values": [
      {"measurement": "EC50", "setting": "[10]", "result": 0.01411, "unit": "µM"}
    ]},
    {"smiles": "Cc1nc2sc(C(c3ccco3)N3CCN(C(c4ccccc4)c4ccccc4)CC3)c(O)n2n1", "note": "(stereo unspecified)", "values": [
      {"measurement": "AC50", "setting": "Paired box protein Pax-8", "result": "5.25 µM (active)"},
      {"measurement": "AC50", "setting": "[11]", "result": "62.5 µM (active)"},
      {"measurement": "AC50", "setting": "[12]", "result": "69 µM (active)"},
      {"measurement": "AC50", "setting": "[13]", "result": "40.9 µM (active)"},
      {"measurement": "AC50", "setting": "[14]", "result": "> 100 µM (inactive)"},
      {"measurement": "AC50", "setting": "[15]", "result": "17 µM (active)"},
      {"measurement": "AC50", "setting": "[16]", "result": "45.6 µM (active)"},
      {"measurement": "AC50", "setting": "[17]", "result": "47 µM (active)"},
      {"measurement": "AC50", "setting": "[18]", "result": "8.59 µM (active)"}
    ]},
    {"smiles": "C[C@H](CO)N1C[C@H](C)[C@H](CN(C)S(=O)(=O)c2ccc(F)cc2)Oc2ccc(NS(C)(=O)=O)cc2C1=O", "values": [
      {"measurement": "AC50", "setting": "[19]", "result": "1.19 µM (active)"}
    ]}
  ]
}
